Laboratory results published in US5683714A, “Liposomal cyclosporin pharmaceutical formulation” (NeXstar Pharmaceuticals, Inc., priority 1995, dated 1997).

Legend:
[1] = test system: sensitive L1210 murine leukemia cells; assay: Multiple drug resistance, 3H-Thymidine uptake; assay type: cell-based; details: Mus musculus, daunorubicin alone
Procedure: (§1) Multiple drug resistance (MDR) was tested in vitro using resistant and sensitive L1210 murine leukemia cells.
(§2) The final concentration of daunorubicin in each well was 0, 0.3, 1, 3, 10, 30, 100 or 1000 ng/ml. […] Fifty microliters of each daunorubicin concentration was added to one well of a flat bottom 96-well culture plate. […] Each drug combination was tested in triplicate.
(§3) The resistant and sensitive cells to be added to each well were grown overnight in a CO2 incubator at 37° C. in RPMI-1640 (10% fetal calf serum and 1% pen-strep). The cells were centrifuged at 1000 rpm for 10 minutes. The cell pellet was resuspended in RPMI-1640 (20% fetal calf serum and 2% pen-strep) and adjusted to 1×10^5 cells/ml. The cells were then added to the wells (100 μl (1×10^4 cells)/well) containing the drug combinations and incubated for 24 hours at 37° C. in a CO2 incubator. Positive control wells contained only cells and media and negative control wells contained cells, media, and 20 μl of 1.5M Tris buffer.
(§4) After 20 hours of incubation, the cells were pulsed with 0.5μ Cu of ^3 H-Thymidine per well. The samples were incubated for another 4 hours. The cells in each well were then harvested using a Skatron Harvester and counted in a beta liquid scintillation counter (LKB).

[2] = test system: resistant L1210 murine leukemia cells; assay: Multiple drug resistance, 3H-Thymidine uptake; assay type: cell-based; details: Mus musculus, L1210, read-out: IC50 in Resistant Cells
Procedure: as §1, §2, §3, §4

COc1cccc2c1C(=O)c1c(O)c3c(c(O)c1C2=O)C[C@@](O)(C(C)=O)C[C@@H]3O[C@H]1C[C@H](N)[C@H](O)[C@H](C)O1 [Daunorubicin]
IC50 [1]: 0.47 µg/mL | IC50 [2]: 0.722 µg/mL
